# Results taken from US8772243B2, “Methods for predicting the response to anti-cancer treatment with an agonist of TLR7 or an agonist of TLR8” (Inserm (Institut National de la Sante et de la Recherche …, priority 2008, dated 2014).
# What was measured:
# [1] = system: IκBα (NF-κB activation) in A549 cells; experiment: Western blot of IκBα phosphorylation and degradation (NF-κB activation) in A549 cells; type: cell-based, human; settings: TNF-α 10 ng/ml
# Experimental: FIG. 3 TLR7 and TLR8 lead to IκBα phosphorylation, but not degradation. A549 cells were untreated or treated with TNF-α (10 ng/ml) (A, B), loxoribine (10 μg/ml) (C, D), or Poly U (10 μg/ml) (E, F) for the indicated periods of time. The cell lysates were analyzed by immunoblot with anti-phospho-specific IκBα, anti-IκBα and anti-actin antibodies (A, C, E). Quantification of the bands was realized using Image J software (B, D, F). Histograms represent the intensity of each band observed in the blots at the indicated time point and are expressed in arbitrary units normalized to actin intensity (relative intensity) both for phospho-IκBα and IκBα. Results are representative of three independent experiments.
# A549 cells (1.10^6 cells) were starved for 4 hours in medium containing 2% FCS, and then stimulated with loxoribine, PolyU, or TNFα (10 ng/ml) for different periods of time as indicated. Cells were lysed in 50 mM Tris-HCl, pH 7.5, 150 mM NaCl, 2 mM EDTA, 0.5% triton X100, 2 mM Na3VO4, 10 mM NaF, and 10 mM sodium pyrophosphate supplemented with a complete protease inhibitor cocktail (Boehringer, Paris, France). Protein contents in the cell lysates were quantified using the quick start Bradford protein assay kit (Biorad, Marnes-La-Coquette, France) to ensure that all samples contained similar amounts of protein. Proteins (30 μg) were resolved in 10% Tris-glycine polyacrylamide gels (Invitrogen, Cergy Pontoise, France) and transferred to PVDF immobilon-P membranes (Millipore, Molsheim, France). Blots were probed with monoclonal antibody against phospho-IκBα (Cell Signaling Technology, Danvers, USA), total IκBα, and actin (Santa Cruz, Le Perray en Yvelines, France).
# In order to determine if the TLR7 and 8 expressed by lung tumor cell lines were able to induce intracellular signaling pathways, we studied NF-κB activation in response to stimulation with TNFα, loxoribine (homodimeric TLR7 ligand), or Poly U (homodimeric TLR8 ligand). […] In contrast TLR7 or 8 stimulation led to atypical NF-κB activation. […] Furthermore, we also observed that the kinetics of IκBα phosphorylation were dependent on the stimulus. On the one hand, TNFα stimulation induced two waves of IκBα phosphorylation; the first one after ten minutes was associated with IκBα degradation, and the second one after sixty minutes was not associated with IκBα degradation. On the other hand, we observed that TLR stimulation induced only a phosphorylation of IκBα, with a maximum phosphorylation obtained after thirty minutes without degradation of IκBα.
# A549 cells [2] = experiment: Percentage of dead cells by Trypan blue exclusion; type: cell-based, human; settings: 24 h
# Experimental: (§1) FIG. 4 TLR7 and 8 induce survival of lung tumor cells. (A) A549 cells were unstimulated, stimulated with loxoribine (10 μg/ml), Poly U (10 μg/ml), or Gardiquimod(10μg/ml) and incubated with Alamar blue for 10 days. Reduction of Alamar blue was then determined by spectrophotometry at 570 and 600 nm. The percentage of reduced Alamar blue was calculated as described by the manufacturer. A549 cells were unstimulated or stimulated with loxoribine, Poly U, Gardiquimod, etoposide, or cycloheximide for 24 h. (B) The percentage of dead cells was determined by Trypan blue exclusion. (C) The DNA content was measured by IP staining after RNAse A treatment. The percentages indicate the proportion of subdiploid (G0/G1) and […]. Data represent mean values±SD from 3 independent experiments (*p<0.05; ** p<0.01, Student test). (D) A549 cells were cultured for 6 h in the presence of loxoribine, Poly U, or Gardiquimod, and the expression of Bcl-2 was assayed using Taq Man Low Density Array technology. The ΔCT values for Bcl-2 expression were calculated by subtraction of the CT value obtained for the 18S housekeeping gene. The ΔΔCT values were obtained by subtraction of ΔCT values for unstimulated cells from those obtained for stimulated cells. The fold increase (arbitrary unit) was obtained by 2^−ΔΔCT.
# A549 cells [3] = experiment: Cell cycle analysis (propidium iodide staining); type: cell-based, human; settings: PI staining
# Experimental: as §1
# A549 cells were cultured in the presence of loxoribine, Poly U, Gardiquimod, etoposide, or cycloheximide. After 48 h, the cells were harvested, washed in cold PBS, and fixed with 2 ml of 70% cold ethanol in PBS for 2 h at 4° C. After centrifugation, the supernatant was removed and the pellet was rinsed with 0.5% PBS Tween. It was then incubated with […] of RNAse A and 50 μg of propidium iodide in PBS. Propidium iodide staining was determined with a FACScalibur cytometer.
# A549 cells [4] = experiment: Tumor cell proliferation assay (Alamar blue reduction); type: cell-based, human; settings: 10 μg/ml, ten days
# Experimental: as §1
# Human lung cancer cell lines were seeded in 96-well plates (800 cells per well) and left unstimulated or were stimulated with loxoribine, Poly U, or Gardiquimod. The proliferation assay was performed with Alamar blue (AbD Serotec, Cergy Pontoise, France) according to the manufacturer's instructions. Briefly, cells were seeded and stimulated with TLR ligands in 100 μl of medium, and 10 μl of Alamar Blue was added. The optical density in each well was determined at 540 nm and 570 nm after 10 days of culture, and the percentage of reduced Alamar blue was determined. The percentage of reduced Alamar blue in unstimulated cells was determined as 100%, and the percentages of the stimulated cells were determined relative to this value.
# [5] = system: Bcl-2 expression in A549 cells; experiment: Bcl-2 expression, Taq Man Low Density Array, A549; type: cell-based, human; settings: 6 h, RT-PCR
# Experimental: as §1, with “The fold increase (arbitrary unit) was obtained by 2^−ΔΔCT.” left out
# Total RNA was extracted from A549 or SK-MES cells stimulated with loxoribine, Poly U, or Gardiquimod for 6 h or from purified human lung cancer cells using the RNeasy isolation-kit RNA (Qiagen, Courtaboeuf, France). The integrity and the quantity of the RNA were evaluated with a bioanalyzer-2100 (Agilent Technologies). All samples were assessed for gene expression analysis using the Taq Man Low-Density Array angiogenesis and immune panel (Applied Biosystem). […] Quantitative real-time TaqMan-PCR was performed using Low-Density-Arrays and the 7900 robotic real-time PCR-system (Applied-Biosystems). […] Data were analyzed using the SDS Software v2.2 (Applied-Biosystems). The ΔCT values were calculated for each gene by subtraction of the CT value of the 18S housekeeping gene from the CT of the gene of interest. […]
# [6] = system: Bcl-2 expression in SCC SK-MES cells; experiment: Bcl-2 expression, SK-MES; type: cell-based, human; settings: data not shown
# Experimental: (§2) Total RNA was extracted from A549 or SK-MES cells stimulated with loxoribine, Poly U, or Gardiquimod for 6 h or from purified human lung cancer cells using the RNeasy isolation-kit RNA (Qiagen, Courtaboeuf, France). The integrity and the quantity of the RNA were evaluated with a bioanalyzer-2100 (Agilent Technologies). All samples were assessed for gene expression analysis using the Taq Man Low-Density Array angiogenesis and immune panel (Applied Biosystem). The RT-PCR experiments were carried-out according to the manufacturer's instructions (Applied-Biosystems). Quantitative real-time TaqMan-PCR was performed using Low-Density-Arrays and the 7900 robotic real-time PCR-system (Applied-Biosystems). The 18S primers and probes were used as internal controls. Data were analyzed using the SDS Software v2.2 (Applied-Biosystems). The ΔCT values were calculated for each gene by subtraction of the CT value of the 18S housekeeping gene from the CT of the gene of interest. The ΔΔCT values were obtained by subtraction of the ΔCT values for unstimulated cells from the […]. The fold increase (arbitrary unit) was obtained by 2^−ΔΔCT.
# A549 and SK-MES cells [7] = experiment: Transcriptomic analysis of 182 genes (Taq Man Low Density Array); type: cell-based, human; settings: 6 h stimulation; versus unstimulated cells
# Experimental: FIG. 6 TLR7 and 8 induce regulation of gene transcription. A549 or SK-MES cells were cultured for 6 h in the presence of loxoribine, Poly U, or Gardiquimod. Total RNA was extracted and analyzed for the expression of 182 genes using Taq Man Low Density Array technology. All genes with a value greater than 35 (CT) were excluded from the analysis. The ΔCT values for the expression of all genes were calculated by subtraction of the CT value of the 18S housekeeping gene. The ΔΔCT values were obtained by subtraction of the ΔCT values for unstimulated cells from those obtained for TLR7- or 8-stimulated cells. The fold increase (arbitrary unit) was obtained by 2^−ΔΔCT. Values were then clustered using the Genesis Software.
# as §2
# [8] = system: 1549, H1355 and SK-MES cells; experiment: Chemoresistance by colony formation assay; type: cell-based, human; settings: concentration added on day 12 of colony formation assay
# Experimental: Alternatively, chemoresistance was assessed by the colony formation assay. In this assay, 1549, H1355 and SK-MES cells were seeded in 6-well plates (500 cells per well) and incubated for 15 days at 37° under 5% CO2. The cells were left unstimulated or stimulated 100 μM Loxoribine or with 10 μg/ml single-stranded polyU RNA (InvivoGen) on days 0, 3, 6 and 9. On day 12, different anti-cancer agents were added at the respective LD50 (cisplatin and carboplatin 100 μM, navelbine 50 μM, doxorubicine 2 nM). On day 15, the wells ware washed with PBS, and stained with 6% (vol/vol) glutaraldehyde, 0.5% (wt/vol) crystal violet in water for 30 minutes. The cells were washed and the colonies of more than 50 cells counted. Cell survival was calculated as follows: number of colonies after chemotherapy/number of cells seeded on day 0×plating efficiency, where the plating efficiency is number of colonies/number of cells seeded.
# A549 and SK-MES cells [9] = experiment: Chemoresistance assay (Trypan blue and Alamar blue); type: cell-based, human; settings: Alamar blue reduction
# Experimental: FIG. 5 TLR7 and 8 induce chemoresistance of lung tumor cells. A549 (A-C) or SK-MES cells (D-F) were cultured with or without loxoribine or Poly U for 48 h, and then left untreated or were treated with cycloheximide, cisplatine, carboplatine, doxorubicine, or Navelbine. After 36 h, the percentage of dead cells was determined by Trypan blue exclusion (A, D) and cell viability was analyzed by the reduction of Alamar blue (B, C, E and F). Data represent mean values±SD from 3 independent experiments (*p<0.05; **p<0.01, ***p<0.001, Student test).
# A549 and SK-MES cells were seeded in 96-well plates (1000 cells per well) and left unstimulated or were stimulated with loxoribine, Poly U, or Gardiquimod for 48 h. Cisplatine, carboplatine, doxorubicine, Navelbine, or cycloheximide was then added for an additional 36 h. The optical density in each well was determined 24 h after the addition of Alamar blue at 540 nm and 570 nm. Alternatively, viable and dead cells were counted using Trypan blue.
# A549 cells [10] = experiment: A549 xenograft in NOD/SCID mice; type: in vivo; settings: for factor of reduction of tumor size by chemotherapy: cisplatine 2 mg/kg/injection i.p.
# Experimental: Mice were anesthetized by intra-peritoneal injection of a solution containing 3.2 mg of ketamine (Virbac) and 0.16 mg of xylasine (Rompum 2%, Bayer Healthcare) in 80 μl of PBS (Gibco). Five days prior to experimentation, A549 cells were pre-stimulated with 100 μM Loxoribine (Invivogen) or left unstimulated. For each condition 5×10^6 cells were diluted in 250 μl PBS and injected subcutaneously to 5 mice per group and were re-stimulated either with 50 μl PBS or with 100 nmol of Loxoribine diluted in 50 μl PBS. Stimulating injections into the tumor site were carried out on the day the cells were injected and then on days 3, 6 and 9. The mice then received either 120 μA PBS, or a chemotherapy of cisplatine (2 mg/kg/injection diluted in 120 μl PBS) on days 18, 20 and 22, both intra-peritoneal. The volume of the tumor was determined by measuring the length (Lg), the width (Wi) of the tumor and by calculating (Lg*(Wi*Wi)/2.
molecule,measurement,setting,value
TNFα,"first wave of IκBα phosphorylation, associated with IκBα degradation",[1],ten
same,"second wave of IκBα phosphorylation, not associated with IκBα degradation",[1],sixty
same,IκBα degradation / type of NF-κB activation,[1]; loxoribine or Poly U 10 μg/ml,IκBα phosphorylation and degradation
C[C@@H]1C[C@@H]([C@H](O)CC2CC(=O)NC(=O)C2)C(=O)[C@@H](C)C1 [cycloheximide],increase in the percentage of dead cells (positive controls),A549 cells [2],2.5 fold
same,proportion of cells in G0/G1 or G2/M phases versus unstimulated cells,A549 cells [3],significant reduction in the percentage of cells in G0/G1 or G2/M
COc1cc([C@@H]2c3cc4c(cc3[C@@H](O[C@@H]3O[C@@H]5CO[C@@H](C)O[C@H]5[C@H](O)[C@H]3O)[C@H]3COC(=O)[C@H]23)OCO4)cc(OC)c1O [etoposide],increase in the percentage of dead cells (positive controls),A549 cells [2],2.5 fold
same,proportion of cells in G0/G1 or G2/M phases versus unstimulated cells,A549 cells [3],significant reduction in the percentage of cells in G0/G1 or G2/M
CCNCc1nc2c(N)nc3ccccc3c2n1CC(C)(C)O [Gardiquimod],increase in reduction of Alamar blue versus unstimulated cells,A549 cells [4],20%
same,proportion of cells in G0/G1 or G2/M phases versus unstimulated cells,A549 cells [3],did not observe any significant differences
same,Bcl-2 expression compared to untreated cells,[5],increased expression of Bcl-2
same,increase in Bcl-2 expression,[6],100 fold
same,genes down-regulated in both SK-MES and A549 cells,A549 and SK-MES cells [7],"Prolactin (PRL), CD80, Fibronectin-1 (FN-1), A Disintegrin And Metalloproteinase with ThromboSpondin motif 1 (ADAMTS1), and Serpin Peptidase Inhibitor Clade C1 (SERPINC1)"
same,"genes up-regulated in A549 cells, but down-regulated in SK-MES cells",A549 and SK-MES cells [7],"Angiopoietin like 3 (ANGPTL3), Serpin Peptidase Inhibitor Clade F1 (SERPINF1), and Angiopoietin 1 (ANGPT1)"
same,"genes up-regulated in SK-MES, but down-regulated in A549 cells",A549 and SK-MES cells [7],"ANGPTL1, Platelet Factor 4 (PF4), and fms related tyrosine kinase 4 (FLT4)"
same,genes up-regulated in both SK-MES and A549 cells,A549 and SK-MES cells [7],"Bcl-2, CCR4, and Vasohibin-1 (VASH-1)"
COc1cccc2c1C(=O)c1c(O)c3c(c(O)c1C2=O)C[C@@](O)(C(=O)CO)C[C@@H]3O[C@H]1C[C@H](N)[C@H](O)[C@H](C)O1 [doxorubicine],LD50,[8],0.002 µM
[NH2][Pt]([NH2])([Cl])[Cl] [cisplatine],"reduction in cell viability by chemotherapy, comparison of drugs",A549 and SK-MES cells [9],more potent inducers of cell death
same,LD50,[8],100 µM
same,factor of reduction of tumor size by chemotherapy,A549 cells [10]; Loxoribine-stimulated group,1.6 factor
same,factor of reduction of tumor size by chemotherapy,A549 cells [10]; NS group,3 factor
same,tumor volume seven weeks after injection of tumor cells,"A549 cells [10]; NS group, cisplatine 2 mg/kg/injection i.p. days 18, 20, 22",0.6 cm^3
[NH2][Pt]1([NH2])[O]C(=O)C2(CCC2)C(=O)[O]1 [carboplatine],"reduction in cell viability by chemotherapy, comparison of drugs",A549 and SK-MES cells [9],more potent inducers of cell death
same,LD50,[8],100 µM
CCC1=C[C@@H]2CN(C1)Cc1c([nH]c3ccccc13)[C@@](C(=O)OC)(c1cc3c(cc1OC)N(C)[C@H]1[C@@](O)(C(=O)OC)[C@H](OC(C)=O)[C@]4(CC)C=CCN5CC[C@]31[C@@H]54)C2 [Navelbine],LD50,[8],50 µM
